Laboratory results from PMC7285181 (Pharmaceutics, 2020).
Where a name gives a salt, the structure may show the parent alone. Marks after values point to notes of the source that are not given here.

Test system: compound 48/80-induced systemic anaphylaxis-like reactions in mice
Assay: Compound 48/80-induced systemic anaphylaxis-like reactions in mice (mortality)
Format: in vivo
Conditions: n = 8, oral 1 h before i.p. compound 48/80 (8 mg/kg), mortality within 1 h
Description: Five groups each of 8 male albino mice were used in this experiment. Mice were housed 4 per cage and were maintained at room temperature (25 ± 0.5 °C). All experiments were performed in compliance with the guidelines approved by the ethics committee of Faculty of Pharmacy, The British University in Egypt (approval number Ex-1904). The mice in the first group were administered phosphate buffer saline orally (negative control group), while the second group were administered phosphate buffer saline 1 hour prior to an intraperitoneal injection of 8 mg/kg of the mast cell degranulator compound 48/80 which induces systemic anaphylaxis-like reactions in mice (positive control group). […] The mortality was monitored for 1 h after induction of anaphylactic shock. After the mortality test, blood was obtained from the heart of each mouse by cardiac puncture.

Structure (SMILES): CC(C)(C(=O)O)c1ccc(C(O)CCCN2CCC(C(O)(c3ccccc3)c3ccccc3)CC2)cc1 (stereo not shown) [FEX powder, Fexofenadine HCl]
- Mortality: 62.5% *
